pIC50: −log10 of the molar value.
Columns and labels:
ULK1 = ULK1 (Homo sapiens, UniProt O75385); test: KINOMEscan: ULK1; assay type: binding; conditions: 100 nM, read-out: Percent Control
MEK1 = MEK1 (Homo sapiens, UniProt Q02750); test: KINOMEscan: MEK1; assay type: binding; conditions: 1000 nM, read-out: Percent Control
α2B receptor = molecular target: T1, α2B receptor (Homo sapiens, UniProt P18089); test: Eurofins Diversity Panel: adrenergic α2B receptor; assay type: binding
T1 construct: purchased Eurofins

DCAMKL1 = DCAMKL1 (Homo sapiens, UniProt O15075); test: KINOMEscan: DCAMKL1; assay type: binding; conditions: 1000 nM, read-out: Percent Control
Bradykinin B2 = Bradykinin B2 (Homo sapiens, UniProt P30411); test: Eurofins Diversity Panel; assay type: binding; conditions: hum, Conc. 10 μM
HIPK3 = HIPK3 (Homo sapiens, UniProt Q9H422); test: KINOMEscan: HIPK3; assay type: binding; conditions: 1000 nM, read-out: Percent Control
HASPIN = HASPIN (Homo sapiens, UniProt Q8TF76); test: KINOMEscan: HASPIN; assay type: binding; conditions: 1000 nM, read-out: Percent Control
WEE2 = WEE2 (Homo sapiens, UniProt P0C1S8); test: KINOMEscan: WEE2; assay type: binding; conditions: 100 nM, read-out: Percent Control
[1] = molecular target: RSK4(Kin.Dom.1-N-terminal) (Homo sapiens, UniProt Q9UK32); test: KINOMEscan: RSK4(Kin.Dom.1-N-terminal); assay type: binding; conditions: 100 nM, read-out: Percent Control
[2] = molecular target: JAK3(JH1domain-catalytic) (Homo sapiens, UniProt P52333); test: KINOMEscan: JAK3(JH1domain-catalytic); assay type: binding; conditions: 1000 nM, read-out: Percent Control
DYRK1A = DYRK1A (Homo sapiens, UniProt Q13627); test: KINOMEscan: DYRK1A; assay type: binding; conditions: 1000 nM, read-out: Percent Control
[3] = system: treatment-naïve primary CLL samples; test: Annexin V/propidium iodide flow cytometry; assay type: cell-based; conditions: Homo sapiens; 10 treatment-naïve samples; read-out: IC50 (cytotoxic activity)
[4] = molecular target: Nicotinic Acetylcholine α1, Bungarotoxin (Homo sapiens, UniProt P02708+P07510+Q07001); test: Eurofins Diversity Panel; assay type: binding; conditions: read-out: % Inh.
GABAB1A = GABAB1A (Homo sapiens, UniProt Q9UBS5); test: Eurofins Diversity Panel; assay type: binding; conditions: hum, Conc. 10 μM
TNIK = TNIK (Homo sapiens, UniProt Q9UKE5); test: KINOMEscan: TNIK; assay type: binding; conditions: 100 nM, read-out: Percent Control
Opiate κ(OP2, KOP) = Opiate κ(OP2, KOP) (Homo sapiens, UniProt P41145); test: Eurofins Diversity Panel; assay type: binding; conditions: hum, Conc. 10 μM
CDK7 = CDK7 (Homo sapiens, UniProt P50613); test: KINOMEscan: CDK7; assay type: binding
Method: The structure and synthesis of VIP152 were recently described by Lücking et al.. (Fig. 1A); however, the selectivity of the molecule in cellular systems has yet to be explored. […] We also performed this experiment at 1000 nM, where CDK9 was inhibited at 99%. […] We found a strong concordance between our data and those of Lücking when comparing the most inhibited kinases. Potential off-target effects of VIP152 were next tested in vitro at a concentration of 10 µM for off-target activity against a broad range of receptors, transporters, ion channels, and enzymes (n = 138) using the Eurofins Diversity Panel.
Kinomescan Kinase Profiling Assay
Kinomescan Assay was performed at DiscoverRX and described in Fabian, et al. 2005, Nat.
Biotechnol. In brief, kinases were produced and subsequently tagged with DNA for qPCR detection.
Streptavidin-coated magnetic beads were bound to biotinylated kinase ligands to serve as a solid support.
VIP152 was dissolved in DMSO and tested across a 10 serial threefold dilution set and compared to a test compound and a DMSO control. Kinases which were inhibited by VIP152 would not be bound to the solid-support resulting in decreased substrate for the qPCR reaction. Kinome map was produced via TreeSpot Analysis from DiscoverRX. […]
NanoBRETTM Target Engagement Assay Protocol […]
The cell and lipid:DNA […]
complex was dispensed into a sterile tissue culture dish and incubated for 22-24 hours. Test compounds were then delivered from the compound source plate to the wells of a 384-well white NBS plate by Echo 550. Cells with NanoBRET Tracer Reagent were then prepared by first removing media from dish of transfected HEK293 cells via aspiration, trypsinization, and allowing cells to dissociate from the dish. Trypsin was neutralized using medium containing serum and centrifuged at 200g for 5 minutes to pellet the cells. Cell density was then adjusted to 2E05 cells/mL in Opti-MEM without phenol red. Complete 20X NanoBRET Tracer Reagent was prepared with Tracer Dilution Buffer and dispensed at a ratio of 1:20 Reagent to cells in the tube. The cell

ERBB3 = ERBB3 (Homo sapiens, UniProt P21860); test: KINOMEscan: ERBB3; assay type: binding; conditions: 1000 nM, read-out: Percent Control
[5] = molecular target: Serotonin (5-Hydroxytryptamine) 5-HT2B) (Homo sapiens, UniProt P41595); test: Eurofins Diversity Panel; assay type: binding; conditions: hum, Conc. 10 μM
STK35 = STK35 (Homo sapiens, UniProt Q8TDR2); test: KINOMEscan: STK35; assay type: binding; conditions: 100 nM, read-out: Percent Control
TGFBR1 = TGFBR1 (Homo sapiens, UniProt P36897); test: KINOMEscan: TGFBR1; assay type: binding; conditions: 100 nM, read-out: Percent Control
OSU-CLL = test: Annexin V/propidium iodide flow cytometry; conditions: compared with HG-3 and MEC-1; 24, 48, 72 h
Method: HG-3, MEC-1, and OSU-CLL were cultured for 24, 48, and 72 h with VIP152 or DMSO.
MTS Proliferation Studies, Annexin V/PI Flow Cytometry
For apoptosis assays of primary CLL, cells were acquired under an institutional reviewer board-approved protocol with informed consent. Leukemia cells were isolated from whole blood utilizing RosetteSep Human B Cell Enrichment Cocktail ([sequence]). Stromal
coculture was done by plating HS-5 stromal cells (50% confluent) in a 6-well plate 24 hours before the addition of CLL cells. CLL cells were added to the plate with VIP152 and allowed to incubate for four hours upon which the cells were centrifuged and replated using 50% HS-5 conditioned media. Apoptosis was measured utilizing FITC-conjugated Annexin-V and Propidium Iodide (Leinco) on a Beckmann-Coulter Cytoflex. Primary samples were excluded from analysis if the viability of the DMSO group was <40% as defined by Annexin-V/Propdium Iodide-/- cells. Single-color controls were utilized for compensation using pooled primary cell sample heated for

STK39 = STK39 (Homo sapiens, UniProt Q9UEW8); test: KINOMEscan: STK39; assay type: binding; conditions: 100 nM, read-out: Percent Control
DLK = DLK (Homo sapiens, UniProt Q12852); test: KINOMEscan: DLK; assay type: binding; conditions: 1000 nM, read-out: Percent Control
CIT = CIT (Homo sapiens, UniProt O14578); test: KINOMEscan: CIT; assay type: binding; conditions: 1000 nM, read-out: Percent Control
TBK1 = TBK1 (Homo sapiens, UniProt Q9UHD2); test: KINOMEscan: TBK1; assay type: binding; conditions: 100 nM, read-out: Percent Control
LATS2 = LATS2 (Homo sapiens, UniProt Q9NRM7); test: KINOMEscan: LATS2; assay type: binding; conditions: 1000 nM, read-out: Percent Control
BRSK1 = BRSK1 (Homo sapiens, UniProt Q8TDC3); test: KINOMEscan: BRSK1; assay type: binding; conditions: 1000 nM, read-out: Percent Control
ERK8 = ERK8 (Homo sapiens, UniProt Q8TD08); test: KINOMEscan: ERK8; assay type: binding; conditions: 1000 nM, read-out: Percent Control

Sequence of CDK7 (P50613 whole entry): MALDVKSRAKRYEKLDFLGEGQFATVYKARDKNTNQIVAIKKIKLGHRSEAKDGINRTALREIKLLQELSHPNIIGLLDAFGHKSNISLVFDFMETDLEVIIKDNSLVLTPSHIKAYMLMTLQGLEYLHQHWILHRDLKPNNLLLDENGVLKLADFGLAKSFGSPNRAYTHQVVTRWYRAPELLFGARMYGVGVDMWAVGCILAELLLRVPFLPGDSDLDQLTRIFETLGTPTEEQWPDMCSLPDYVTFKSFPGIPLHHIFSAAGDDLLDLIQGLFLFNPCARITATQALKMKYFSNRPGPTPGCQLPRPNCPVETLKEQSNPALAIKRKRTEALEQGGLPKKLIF
Sequence of TBK1 (Q9UHD2 whole entry): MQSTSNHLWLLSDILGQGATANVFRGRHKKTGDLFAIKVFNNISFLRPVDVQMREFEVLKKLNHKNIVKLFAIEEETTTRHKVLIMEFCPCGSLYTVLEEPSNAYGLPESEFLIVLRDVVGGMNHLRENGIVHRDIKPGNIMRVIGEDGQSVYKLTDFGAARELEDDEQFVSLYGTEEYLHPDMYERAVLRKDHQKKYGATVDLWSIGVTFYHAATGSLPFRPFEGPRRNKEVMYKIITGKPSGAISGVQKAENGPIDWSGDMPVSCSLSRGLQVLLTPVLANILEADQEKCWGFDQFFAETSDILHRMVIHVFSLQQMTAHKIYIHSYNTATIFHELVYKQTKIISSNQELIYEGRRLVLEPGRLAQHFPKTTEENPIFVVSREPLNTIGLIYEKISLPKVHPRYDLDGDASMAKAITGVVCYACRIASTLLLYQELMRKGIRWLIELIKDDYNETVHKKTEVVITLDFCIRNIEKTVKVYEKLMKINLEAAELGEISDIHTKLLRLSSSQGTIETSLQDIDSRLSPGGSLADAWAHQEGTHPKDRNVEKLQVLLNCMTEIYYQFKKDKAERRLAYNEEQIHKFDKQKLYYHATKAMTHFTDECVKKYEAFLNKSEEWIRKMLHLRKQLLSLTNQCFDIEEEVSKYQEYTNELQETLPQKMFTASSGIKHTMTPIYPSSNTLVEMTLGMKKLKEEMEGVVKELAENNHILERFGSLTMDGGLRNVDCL
Sequence of Nicotinic Acetylcholine α1, Bungarotoxin (Q07001 22-517): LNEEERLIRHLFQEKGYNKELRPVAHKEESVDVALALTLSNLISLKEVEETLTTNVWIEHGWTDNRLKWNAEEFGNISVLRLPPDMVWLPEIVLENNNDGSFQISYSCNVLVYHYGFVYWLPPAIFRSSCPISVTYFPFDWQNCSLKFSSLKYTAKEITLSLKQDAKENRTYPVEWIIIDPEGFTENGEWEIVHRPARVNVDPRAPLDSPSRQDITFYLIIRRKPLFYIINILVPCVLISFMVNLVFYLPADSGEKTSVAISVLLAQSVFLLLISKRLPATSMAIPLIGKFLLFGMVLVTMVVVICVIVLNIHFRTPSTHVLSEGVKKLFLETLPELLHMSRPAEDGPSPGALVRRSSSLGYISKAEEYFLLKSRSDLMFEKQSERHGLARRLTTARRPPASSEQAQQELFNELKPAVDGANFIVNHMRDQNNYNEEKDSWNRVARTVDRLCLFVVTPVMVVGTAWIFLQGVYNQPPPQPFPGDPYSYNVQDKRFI
Sequence of Nicotinic Acetylcholine α1, Bungarotoxin (P07510 23-517): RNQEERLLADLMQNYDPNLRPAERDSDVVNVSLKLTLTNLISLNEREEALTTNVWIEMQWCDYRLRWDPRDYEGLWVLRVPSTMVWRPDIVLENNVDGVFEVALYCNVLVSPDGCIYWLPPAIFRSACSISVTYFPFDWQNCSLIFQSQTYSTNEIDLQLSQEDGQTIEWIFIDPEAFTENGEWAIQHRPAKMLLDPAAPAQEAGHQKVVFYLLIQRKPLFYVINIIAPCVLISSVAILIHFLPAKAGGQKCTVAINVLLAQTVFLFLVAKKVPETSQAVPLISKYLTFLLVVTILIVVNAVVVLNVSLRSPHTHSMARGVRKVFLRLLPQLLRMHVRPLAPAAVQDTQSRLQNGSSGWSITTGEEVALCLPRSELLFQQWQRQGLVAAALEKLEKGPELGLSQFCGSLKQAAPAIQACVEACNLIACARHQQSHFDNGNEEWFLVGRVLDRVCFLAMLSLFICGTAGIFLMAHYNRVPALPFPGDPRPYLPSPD
Sequence of Nicotinic Acetylcholine α1, Bungarotoxin (P11230 24-501, further chain): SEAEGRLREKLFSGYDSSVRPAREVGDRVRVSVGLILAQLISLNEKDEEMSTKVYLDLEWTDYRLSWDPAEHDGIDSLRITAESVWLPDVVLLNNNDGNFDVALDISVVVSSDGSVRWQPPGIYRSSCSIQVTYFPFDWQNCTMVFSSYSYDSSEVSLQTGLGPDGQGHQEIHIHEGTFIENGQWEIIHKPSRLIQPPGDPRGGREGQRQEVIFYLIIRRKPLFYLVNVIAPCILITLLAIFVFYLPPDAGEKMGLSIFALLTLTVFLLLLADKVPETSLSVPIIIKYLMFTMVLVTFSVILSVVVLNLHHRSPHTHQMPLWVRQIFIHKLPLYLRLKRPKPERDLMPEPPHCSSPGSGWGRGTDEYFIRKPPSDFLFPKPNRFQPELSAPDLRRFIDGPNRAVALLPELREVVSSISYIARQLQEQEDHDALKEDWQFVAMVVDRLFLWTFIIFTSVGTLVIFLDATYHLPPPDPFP
Sequence of Nicotinic Acetylcholine α1, Bungarotoxin (P02708 21-457): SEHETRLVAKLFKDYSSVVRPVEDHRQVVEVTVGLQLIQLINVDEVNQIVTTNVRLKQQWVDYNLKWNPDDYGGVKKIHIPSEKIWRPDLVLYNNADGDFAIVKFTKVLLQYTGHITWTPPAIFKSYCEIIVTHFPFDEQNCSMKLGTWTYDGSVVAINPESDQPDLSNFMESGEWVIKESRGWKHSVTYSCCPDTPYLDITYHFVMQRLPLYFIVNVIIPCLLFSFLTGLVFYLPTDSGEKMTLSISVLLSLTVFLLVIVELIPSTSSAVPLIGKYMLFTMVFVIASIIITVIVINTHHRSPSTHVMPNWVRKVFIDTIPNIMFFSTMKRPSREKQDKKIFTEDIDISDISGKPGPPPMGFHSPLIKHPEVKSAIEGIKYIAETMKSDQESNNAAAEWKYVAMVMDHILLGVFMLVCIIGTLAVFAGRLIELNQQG
Sequence of HASPIN (Q8TF76 whole entry): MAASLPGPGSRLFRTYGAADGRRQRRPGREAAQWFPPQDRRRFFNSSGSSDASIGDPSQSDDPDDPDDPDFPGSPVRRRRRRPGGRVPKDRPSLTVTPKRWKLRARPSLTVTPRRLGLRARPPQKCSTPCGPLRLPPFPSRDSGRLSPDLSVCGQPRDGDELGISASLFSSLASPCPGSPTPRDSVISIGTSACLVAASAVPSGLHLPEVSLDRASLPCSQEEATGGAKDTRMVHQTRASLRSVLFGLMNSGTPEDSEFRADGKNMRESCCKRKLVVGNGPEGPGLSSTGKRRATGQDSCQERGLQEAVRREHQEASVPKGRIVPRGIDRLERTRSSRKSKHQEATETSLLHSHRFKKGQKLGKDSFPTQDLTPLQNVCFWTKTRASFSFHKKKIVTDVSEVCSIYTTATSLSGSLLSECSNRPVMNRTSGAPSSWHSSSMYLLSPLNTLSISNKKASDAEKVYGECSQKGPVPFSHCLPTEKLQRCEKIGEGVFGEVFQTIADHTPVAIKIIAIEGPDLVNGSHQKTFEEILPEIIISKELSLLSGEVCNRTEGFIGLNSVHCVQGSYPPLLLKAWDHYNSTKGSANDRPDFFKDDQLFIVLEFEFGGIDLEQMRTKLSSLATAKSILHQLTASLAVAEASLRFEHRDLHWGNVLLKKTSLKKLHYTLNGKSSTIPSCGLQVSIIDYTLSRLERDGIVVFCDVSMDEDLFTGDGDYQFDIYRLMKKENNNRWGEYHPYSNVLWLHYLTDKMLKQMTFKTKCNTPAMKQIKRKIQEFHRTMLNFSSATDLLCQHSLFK
Sequence of WEE2 (P0C1S8 whole entry): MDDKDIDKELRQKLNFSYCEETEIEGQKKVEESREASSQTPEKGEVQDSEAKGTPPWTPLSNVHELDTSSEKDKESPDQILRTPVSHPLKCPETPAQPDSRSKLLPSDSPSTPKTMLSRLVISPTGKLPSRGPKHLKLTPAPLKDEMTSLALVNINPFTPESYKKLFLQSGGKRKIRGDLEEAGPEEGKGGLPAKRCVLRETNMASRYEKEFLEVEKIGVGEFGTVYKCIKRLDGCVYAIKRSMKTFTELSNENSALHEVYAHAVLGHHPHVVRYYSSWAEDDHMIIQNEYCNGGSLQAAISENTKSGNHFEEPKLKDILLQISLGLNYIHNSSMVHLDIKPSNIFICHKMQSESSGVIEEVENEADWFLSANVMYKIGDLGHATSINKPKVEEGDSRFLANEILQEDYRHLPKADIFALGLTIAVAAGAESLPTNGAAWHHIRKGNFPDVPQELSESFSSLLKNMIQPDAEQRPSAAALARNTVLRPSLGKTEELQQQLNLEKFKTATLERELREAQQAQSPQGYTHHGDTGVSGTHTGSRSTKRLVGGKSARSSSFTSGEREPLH
Sequence of JAK3(JH1domain-catalytic) (P52333 822-1124 limits assumed): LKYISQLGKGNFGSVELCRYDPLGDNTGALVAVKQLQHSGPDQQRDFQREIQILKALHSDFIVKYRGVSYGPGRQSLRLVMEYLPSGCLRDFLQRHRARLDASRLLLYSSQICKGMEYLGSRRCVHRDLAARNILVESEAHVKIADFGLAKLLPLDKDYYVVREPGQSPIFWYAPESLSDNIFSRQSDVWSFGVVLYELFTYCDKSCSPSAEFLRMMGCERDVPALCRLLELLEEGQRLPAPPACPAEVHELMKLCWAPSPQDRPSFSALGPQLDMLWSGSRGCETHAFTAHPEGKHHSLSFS

Compound COc1cc(F)ccc1-c1cc(Nc2cc(CS(C)(=N)=O)ccn2)ncc1F (centres unmarked) [VIP152] has a remaining binding at 0.1 µM (ULK1) of 93%, a remaining binding at 1 µM (MEK1) of 85% and a pIC50 (α2B receptor) of 5.93. The remaining binding at 1 µM (DCAMKL1) was 86%, the inhibition at 10 µM (Bradykinin B2) was 9% and the remaining binding at 1 µM (HIPK3) was 66%. It also gave a remaining binding at 1 µM (HASPIN) of 99%, a remaining binding at 0.1 µM (WEE2) of 100% and a remaining binding at 0.1 µM [1] of 100%. The remaining binding at 1 µM [2] was 74%, the remaining binding at 1 µM (DYRK1A) was 12% and the pIC50 [3] was > 7.00. The inhibition at 10 µM [4] was 3%, the inhibition at 10 µM (GABAB1A) was 1% and the remaining binding at 0.1 µM (TNIK) was 100%. The inhibition at 10 µM (Opiate κ(OP2, KOP)) was 8%, the inhibition at 0.1 µM (CDK7; 100 nM) was 64% and the inhibition at 1 µM (CDK7; 1000 nM) was 97.9%. The remaining binding at 0.1 µM (CDK7; CDK7, 100 nM, read-out: Percent Control) was 36%, the remaining binding at 1 µM (CDK7; CDK7, 1000 nM, read-out: Percent Control) was 2.1% and the remaining binding at 1 µM (ERBB3) was 98%. It also gave an inhibition at 10 µM [5] of 56%, a remaining binding at 0.1 µM (STK35) of 100% and a remaining binding at 0.1 µM (TGFBR1) of 100%. For the same compound, the “sensitivity to induction of apoptosis” value (OSU-CLL) was “highest sensitivity to induction of apoptosis”, the remaining binding at 0.1 µM (STK39) was 100% and the remaining binding at 1 µM (DLK) was 90%. For the same compound, the remaining binding at 1 µM (CIT) was 43%, the remaining binding at 0.1 µM (TBK1) was 62% and the remaining binding at 1 µM (LATS2) was 97%. The remaining binding at 1 µM (BRSK1) was 83% and the remaining binding at 1 µM (ERK8) was 58%.

Source: paper PMC9898036, “VIP152 is a selective CDK9 inhibitor with pre-clinical in vitro and in vivo efficacy in chronic lymphocytic leukemia” (Leukemia, 2022)
